Test [1] concerns Kasumi-1 acute myeloid leukemia cells. As to the kind of experiment: Growth Inhibition Assay (Alamar blue), Kasumi-1. Format: cell-based, human. The settings on record: Homo sapiens, Kasumi 1, 72 h, Kasumi-1 cells. The method in brief: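 Adherent SKBr3 cells seeded at 8,000/well and suspension Kasumi-1 cells at 20,000/well, rested 24 h at 37 °C, then treated in triplicate for 72 h. Viability read by Alamar blue (440 µM) fluorescence (ex 530/em 580 nm) after 6 h; growth inhibition calculated versus untreated controls, corrected for the time-zero cell population.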
In general terms: Alamar Blue is a resazurin reagent that responds to reducing activity.

Test [2] has as its system Hsp70 species from SKBr3 cancer cell extracts. As to the kind of experiment: Hsp70 competition assay using YK55 beads, SKBr3 extracts. Format: binding, human. The method, then:
FIG. 14. YK5 has a higher affinity for tumor Hsp70s and selectively kills cancer cells. (a-c) Cells were treated with the indicated concentrations of inhibitors for the times presented, and metabolically viable cells by Alamar blue uptake as described in Methods (a). Molecular markers of apoptosis (PARP and caspase-3 cleavage) were analyzed in cells treated for 24 h with indicated concentrations of inhibitors, by western blotting (b, c). Morphology of cells treated for 24 h with vehicle or the indicated inhibitors was analyzed by light microscopy (c). (d) Extracts (500 μg) were incubated overnight with beads containing D-biotin (75 μM) or the indicated concentrations of YK55 added to 50 μl streptavidin beads. HS=heat shocked. (e) SKBr3 (200 μg) and MRC-5 (400 μg) extracts and recombinant human Hsp70 (2 μg) were incubated for 3 h with the indicated concentrations with YK5, followed by precipitation of Hsp70 complexes on YK55-beads (50 μM YK55 added to 50 μl streptavidin beads). Data obtained from three independent experiments were graphed (right). Points, mean; bars, s.d.
In a second experiment, the ability of soluble YK5 to compete YK55-binding to normal and cancer cell Hsp70 species were tested (FIG. 14e). […] Interaction of YK5 was even weaker with recombinant human Hsp70 (FIG. 14e).
Hsp70 Competition Assay Using the YK55 Beads. […]

Another test concerns the target T1, Hsc70 and DJA2 (Homo sapiens, UniProt P11142).
T1 construct: made in house
Nature of the test: Luciferase refolding by Hsc70 and DJA2. Format: biochemical. The settings on record: 30° C. How it is done:
FIG. 6. YK5 inhibits core biochemical functions of Hsp70s and disrupts the Hsp90/Hsp70 interaction. a) Refolding of denatured luciferase by Hsc70 and DJA2 at 30° C. was measured for the indicated times in the presence of YK5 (100 μM) or vehicle (left), or at 60 min in the presence of indicated concentrations of YK5 (right). b) Hsc70 ATPase rates were measured for reactions at 30° C. with the indicated combinations of Hsc70 and co-chaperones in the presence of vehicle (DMSO) or YK5 (100 μM). ADP production was monitored by thin layer chromatography separation of radiolabeled ADP from ATP and phosphorimaging analysis (lower). […] Proteins isolated with anti-Hsp90 and Hsp70s antibodies (IP: Hsp90 or Hsp70), or present in the cell extract (Lysate) were analyzed by WB. […] Proteins were applied to a native gel and analyzed by immunoblotting. […]
Hsc70 ATPase Activity and Luciferase Refolding. Human Hsc70, DJA1/DNAJA1, DJA2/DNAJA2 and Hsp110/Hsp105/HSPH1 were purified and analyzed. […] Samples at time points were terminated with 37.5 mM EDTA and analyzed by thin layer chromatography on polyethylene-imine cellulose (Mallinckrodt Baker) developed in 0.5 M LiCl and 0.5 M formic acid. The ADP produced was determined by image phosphor quantitation and the linear enzymatic rates (Vmax) were calculated by regression analysis. […]

Each structure is given as a SMILES string.

T1 sequence (P11142 whole entry): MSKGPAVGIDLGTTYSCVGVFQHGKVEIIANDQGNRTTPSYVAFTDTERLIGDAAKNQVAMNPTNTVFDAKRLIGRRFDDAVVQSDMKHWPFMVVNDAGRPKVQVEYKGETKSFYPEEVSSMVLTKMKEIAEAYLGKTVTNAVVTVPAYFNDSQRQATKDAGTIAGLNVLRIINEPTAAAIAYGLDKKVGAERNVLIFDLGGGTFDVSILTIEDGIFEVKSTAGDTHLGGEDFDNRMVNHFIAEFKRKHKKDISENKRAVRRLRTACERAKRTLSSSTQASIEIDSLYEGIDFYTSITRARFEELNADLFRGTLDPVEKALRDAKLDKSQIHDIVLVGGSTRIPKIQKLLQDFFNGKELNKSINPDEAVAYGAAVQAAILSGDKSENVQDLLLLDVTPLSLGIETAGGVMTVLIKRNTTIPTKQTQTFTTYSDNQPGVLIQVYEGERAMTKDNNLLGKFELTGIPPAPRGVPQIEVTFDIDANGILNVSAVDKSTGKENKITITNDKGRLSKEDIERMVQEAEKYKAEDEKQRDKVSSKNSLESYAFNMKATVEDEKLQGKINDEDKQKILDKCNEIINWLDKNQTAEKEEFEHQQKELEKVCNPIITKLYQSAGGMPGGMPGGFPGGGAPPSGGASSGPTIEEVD

With `C=CC(=O)Nc1cc(N)nc(Sc2c(OC)nc(N3CCN(C)CC3)nc2OC)n1` [YK5, N-(6-amino-2-(4,6-dimethoxy-2-(4-methylpiperazin-1-yl)pyrimidin-5-ylthio)pyrimidin-4-yl)acrylamide], in test [1], the IC50 (usually the midpoint of a concentration-inhibition curve) fell in the range of 0.4 to 0.6 µM. In test [2], the “concentration competing binding of YK55-beads to Hsp70” value was “low micromolar concentrations”. In addition, the “refolding of luciferase by purified Hsc70 and DJA2” value at Hsc70 and DJA2 was “dose-dependently inhibited the refolding of luciferase”.

These data come from patent US9567318B2, “Substituted pyrimidine compounds and uses thereof” (Memorial Sloan-Kettering Cancer Center, priority 2009, dated 2017).
